Measurements: patent US20250177351A1, “ISOINDOLINE COMPOSITIONS AND METHODS FOR TREATING NEURODEGENERATIVE DISEASE” (Cognition Therapeutics, Inc., priority 2022, published 2025)
Marks after values point to notes of the source that are not given here.

Legend:
[1] = Phase 1 multiple ascending dose (MAD) study: plasma pharmacokinetics; type: in vivo, human; set-up: CLss/F: unit not given here; conditions: for CLss/F / t1/2: MAD
Method: A Phase 1, two-part single and multiple ascending dose study was conducted in 7 and 4 cohorts of healthy human subjects respectively. […] In Part B, subjects were administered 280, 560, and 840 mg once daily for 14 days (8:2 A:P per cohort). An elderly cohort, age 65-75, was dosed at 560 mg once daily for 14 days (7:2 A:P). […] Cognitive testing was performed in the healthy elderly cohort at baseline and at Day 14 of treatment.
In Part B, healthy young subjects in each cohort received the same dose once daily for 14 days after overnight fasting. Cohort dosing started at 280 mg, followed by 560 mg and 840 mg in subsequent cohorts. In each cohort, eight subjects received drug and two received placebo. A fourth cohort of healthy elderly subjects (≥65 years old) received a 560 mg dose vs. placebo daily for 14 days (seven active, two placebo).
Subjects were dosed in the morning with 240 mL of water after an 8-hour fast, and remained in a semi-reclined position for 1 hour and fasting for 2 hours post-administration, except for the fed cohort in Part A. Subjects in each MAD cohort were confined to the clinical facility from check-in on Day 0 until the pharmacokinetic sample was collected on Day 16, 48 hours after administration of the last dose on Day 14. Subjects returned to the clinical facility for follow-up visits on Days 24 and 35.
In Part A, blood draws for assessment of PK parameters occurred pre-dose and at 15, 30, 45, 60, and 90 minutes post dose as well as at 2, 3, 4, 8, 12, 24, 36, and 48 hours post dose. […] In Part B, blood samples for plasma PK analysis were taken on Day 1 at pre-dose and at 2 hours post-dose, on Day 3 at pre-dose and at 15, 30 and 45 minutes and 1, 2, 3, 4, 8, 12 and 24 hours post-dose, on Days 4, 6, 8 and 10 at pre-dose and at 1.5 hours post-dose and following the final dose on Day 14 at pre-dose and 15, 30 and 45 minutes and 1, 2, 4, 8, 12, 24, 36 and 48 hours post-dose.
This was assessed by analysis of variance (ANOVA) of log-transformed Cmax, AUC0-24, AUC0-48, and/or AUC0-inf, using a model with factors for treatment (fed status or age [young vs. elderly] status) and subject within sequence. Treatment mean differences and 90% confidence intervals of the log transformed PK parameters were back-transformed, to present the geometric least squares means ratios and 90% confidence limits.

[2] = Phase 1 SAD study: safety assessments; type: in vivo, human
Method: Part A was a single ascending dose cohort study in which healthy, young subjects (less than 65 years old) received one dose of study drug in the morning after an overnight fast. Cohort dosing started at 10 mg and increased to 30 mg, 90 mg, 180 mg, 450 mg, and 1120 mg in subsequent cohorts. Six drug-treated and two placebo-treated subjects were randomized in each cohort. A seventh cohort of six subjects each received a single 90 mg dose of drug 30 min. after a meal. Following completion of all safety assessments and blood draws for PK analyses, subjects were discharged on Day 3.
Safety variables, including incidence of adverse events (AEs), vital signs, clinical laboratory findings, 12-lead electrocardiographs (ECGs), physical examination, and affective and cognitive measures (Part B only), were summarized for all subjects who received study drug.

[3] = MAD 560 mg, Day 14 (steady state)
[4] = age up to 64 years, 280 mg (n = 8), Day 14, mean
[5] = age up to 64 years, 560 mg (n = 8), Day 14, mean

## CC(C)(C)Oc1cc(CCC(C)(C)N2Cc3ccc(S(C)(=O)=O)cc3C2)ccc1O [CT1812]
[1]; MAD 560 mg, Day 3
  AUC0-24h, aged cohort vs subjects under 64 years (geometric least-squares mean): ~1.34 times
  Cmax, aged cohort vs subjects under 64 years (geometric least-squares mean): approximately 1.7 times
[1]; [3]
  AUC0-24h, aged cohort vs younger subjects: 1.5 times
  Cmax, aged cohort vs younger subjects: 1.6 times
[1]; MAD 280 to 840 mg
  increase of Cmax and AUC with dose: slightly greater than dose proportionally
[1]; age at least 65 years, 560 mg (n = 7), Day 14, mean
  CLss/F: 169^‡‡
[1]; age at least 65 years, 560 mg, Day 3 (n = 4), over max. 24 hours post dose
  t1/2: 8.83^†† hr
[1]; [4]
  CLss/F: 387
  t1/2: 12.0 h
[1]; [5]
  CLss/F: 296
  t1/2: 12.3 h
[1]; age up to 64 years, dose cell prints 560 mg (n = 7), Day 14, follows 840 mg Day 3
  CLss/F: 212^‡‡
[1]; age up to 64 years, dose cell prints 560 mg (n = 7), Day 14, follows 840 mg Day 3 (n = 6)
  t1/2: 8.93^§ hr
[1]; over 14 days
  accumulation in plasma: minimal accumulation
[2]; SAD
  ECG: No ECG parameters or changes were assessed as clinically significant
  clinical laboratory results: no subjects with clinically significant laboratory results
[2]; SAD Total Active (n = 42)
  Number of Subjects with Treatment-Emergent AE: All TEAEs: 18
  Number of Subjects with Treatment-Emergent AE: Headache: 6
  Number of Subjects with Treatment-Emergent AE: Nausea: 6
[2]; SAD fasted 10 mg (n = 6)
  Number of Subjects with Treatment-Emergent AE: All TEAEs: 2
[2]; SAD fasted 30 mg (n = 6)
  Number of Subjects with Treatment-Emergent AE: All TEAEs: 4
  Number of Subjects with Treatment-Emergent AE: Headache: 3
  Number of Subjects with Treatment-Emergent AE: Nausea: 1
[2]; SAD fasted 180 mg (n = 6)
  Number of Subjects with Treatment-Emergent AE: All TEAEs: 2
[2]; SAD fasted 450 mg (n = 6)
  Number of Subjects with Treatment-Emergent AE: All TEAEs: 4
  Number of Subjects with Treatment-Emergent AE: Headache: 1
  Number of Subjects with Treatment-Emergent AE: Nausea: 2
[2]; SAD fasted 1120 mg (n = 6)
  Number of Subjects with Treatment-Emergent AE: All TEAEs: 4
  Number of Subjects with Treatment-Emergent AE: Headache: 1
  Number of Subjects with Treatment-Emergent AE: Nausea: 3
[2]; SAD fed 90 mg (n = 6)
  Number of Subjects with Treatment-Emergent AE: All TEAEs: 2
  Number of Subjects with Treatment-Emergent AE: Headache: 1
[2]; SAD, 10 mg to 1120 mg
  deaths or serious adverse events: no deaths or other serious adverse events
[2]; single dose 10 mg to 1120 mg, healthy subjects
  tolerability: well tolerated
